# Reference: US20250101028A1, “HETEROCYCLIC COMPOUNDS, COMPOSITIONS THEREOF, AND METHODS OF TREATMENT THEREWITH” (BeiGene, Ltd., priority 2022, published 2025)
# Key:
# [1] = biological target: T1, GST-tagged GDP-loaded KRAS G12V (amino acids 1-169) (Homo sapiens, UniProt P01116, G12V); experiment: KRAS G12V probe displacement assay (TR-FRET); assay type: binding; conditions: displacement of biotinylated probe 2 from GDP-loaded KRAS G12V
# T1 construct: GST-tagged GDP-loaded KRAS G12V (amino acids 1-169); made in house; host or cells: E. coli
# Method in brief: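 Probe displacement read as TR-FRET (665/620 nm) with anti-GST-Tb and streptavidin-XL665, IC50 from four-parameter logistic fit. Compound preincubated 1 h, 24 °C, with E. coli-expressed KRAS 1-169: WT at 3 nM with 60 nM probe 1, G12V at 2 nM with 2.5 nM probe 2, pH 7.5.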
# [2] = system: pERK1/2(THR202/TYR204) level, SW620 cell line; experiment: KRAS G12V pERK assay (HTRF); assay type: cell-based; conditions: Homo sapiens, SW-620; SW620 cells, 2 hrs compound treatment
# Method: SW620 cell line was used in this study. Cells were maintained in RPMI 1640 supplemented with 10% fetal bovine serum (Thermo Fisher), 50 units/mL penicillin and streptomycin (Thermo Fisher) and kept at 37° C. in a humidified atmosphere of 5% CO2 in air. Cells were reinstated from frozen stocks that were laid down within 30 passages from the original cells purchased. 40000 cells per well were seeded into a 96-well plate and incubated overnight. Cells were treated with a 10-point dilution series. The final compound concentration is from […]. After 2 hrs compound treatment, cells were lysed, and the pERK1/2(THR202/TYR204) level in the cell lysates was detected by HTRF kit (Cisbio). In brief, a total of 16 μL of cell lysate from each well of a 96-well plate was transferred to a 384-well white assay plate. Lysate from each well was incubated with 2 μL of Eu3+− cryptate (donor) labeled anti-phospho-ERK1/2 and 2 μL of D2 (acceptor) labeled anti-phospho-ERK1/2 antibodies (Cisbio) overnight in dark at room temperature. When donor and acceptor are in close proximity, excitation of the donor with laser triggers a Fluorescence Resonance Energy Transfer (FRET) towards the acceptor, which in turn fluoresces at 655 nm wavelength. FRET signals were measured using a PHERAstar FSX reader (BMG Labtech). IC50 determination was performed by fitting the curve of percent inhibition versus the log of the inhibitor concentration using Dotmatics.
# T1 sequence (P01116 1-169 isoform P01116-2 G12V): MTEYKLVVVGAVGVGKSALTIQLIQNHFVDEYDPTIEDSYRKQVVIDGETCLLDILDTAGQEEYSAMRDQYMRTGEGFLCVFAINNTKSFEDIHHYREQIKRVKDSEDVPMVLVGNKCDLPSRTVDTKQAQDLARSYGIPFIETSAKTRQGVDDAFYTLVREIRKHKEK
Structure (SMILES),IC50 [1] [nM],IC50 [2] [nM]
"N#CC1CCN(c2nc(OC[C@@]34CCCN3C[C@H](F)C4)nc3c(F)c(-c4ccc(F)c5sc(N)nc45)c(C(F)(F)F)cc23)C1 (stereo partly drawn) [Example 60, 1-(7-(2-amino-7-fluorobenzo[d]thiazol-4-yl)-8-fluoro-2-(((2R,7aS)-2-fluorotetrahydro-1H-pyrrolizin-7a(5H)-yl)methoxy)-6-(trifluoromethyl)quinazolin-4-yl)pyrrolidine-3-carbonitrile]",2.1,413
"Nc1nc2c(-c3c(C(F)(F)F)cc4c(N5CC(F)C5)nc(OC[C@@]56CCCN5C[C@H](F)C6)nc4c3F)ccc(F)c2s1 [Example 37, 7-fluoro-4-(8-fluoro-4-(3-fluoroazetidin-1-yl)-2-(((2R,7aS)-2-fluorotetrahydro-1H-pyrrolizin-7a(5H)-yl)methoxy)-6-(trifluoromethyl)quinazolin-7-yl)benzo[d]thiazol-2-amine]",6,449
"C[C@@H]1C[C@@H](C#N)CCN1c1nc(OC[C@@]23CCCN2C[C@H](F)C3)nc2c(F)c(-c3ccc(F)c4sc(N)c(C#N)c34)c(Cl)cc12 [Example 101, (2R,4S)-1-(7-(2-amino-3-cyano-7-fluorobenzo[b]thiophen-4-yl)-6-chloro-8-fluoro-2-(((2R,7aS)-2-fluorotetrahydro-1H-pyrrolizin-7a(5H)-yl)methoxy)quinazolin-4-yl)-2-methylpiperidine-4-carbonitrile]",0.28,11
"CC1C(C#N)CN1c1nc(OC[C@@]23CCCN2C[C@H](F)C3)nc2c(F)c(-c3ccc(F)c4sc(N)nc34)c(C(F)(F)F)cc12 (stereo partly drawn) [Example 43, 1-(7-(2-amino-7-fluorobenzo[d]thiazol-4-yl)-8-fluoro-2-(((2R,7aS)-2-fluorotetrahydro-1H-pyrrolizin-7a(5H)-yl)methoxy)-6-(trifluoromethyl)quinazolin-4-yl)-2-methylazetidine-3-carbonitrile]",7.1,356
"N#C[C@H]1CCC[C@H]1Nc1nc(OC[C@@]23CCCN2C[C@H](F)C3)nc2c(F)c(-c3ccc(F)c4sc(N)nc34)c(C(F)(F)F)cc12 [Example 26, (1S,2R)-2-((7-(2-amino-7-fluorobenzo[d]thiazol-4-yl)-8-fluoro-2-(((2R,7aS)-2-fluorotetrahydro-1H-pyrrolizin-7a(5H)-yl)methoxy)-6-(trifluoromethyl)quinazolin-4-yl)amino)cyclopentane-1-carbonitrile]",11,–
"CO[C@H]1C[C@@H](Nc2nc(OC[C@@]34CCCN3C[C@H](F)C4)nc3c(F)c(-c4ccc(F)c5sc(N)nc45)c(C(F)(F)F)cc23)C1 [Example 13, 7-fluoro-4-(8-fluoro-2-(((2R,7aS)-2-fluorotetrahydro-1H-pyrrolizin-7a(5H)-yl)methoxy)-4-(((cis)-3-methoxycyclobutyl)amino)-6-(trifluoromethyl)quinazolin-7-yl)benzo[d]thiazol-2-amine]",20,–
"N#CC1(F)CCN(c2nc(OC[C@@]34CCCN3C[C@H](F)C4)nc3c(F)c(-c4ccc(F)c5sc(N)nc45)c(C(F)(F)F)cc23)CC1 [Example 70, 1-(7-(2-amino-7-fluorobenzo[d]thiazol-4-yl)-8-fluoro-2-(((2R,7aS)-2-fluorotetrahydro-1H-pyrrolizin-7a(5H)-yl)methoxy)-6-(trifluoromethyl)quinazolin-4-yl)-4-fluoropiperidine-4-carbonitrile]",7.5,–
"Nc1nc2c(-c3c(C(F)(F)F)cc4c(NC5CC5c5ccccc5)nc(OC[C@@]56CCCN5C[C@H](F)C6)nc4c3F)ccc(F)c2s1 (relative stereo) [Example 5, 7-fluoro-4-(8-fluoro-2-(((2R,7aS)-2-fluorotetrahydro-1H-pyrrolizin-7a(5H)-yl)methoxy)-4-(((trans)-2-phenylcyclopropyl)amino)-6-(trifluoromethyl)quinazolin-7-yl)benzo[d]thiazol-2-amine]",45,–
"N#CCC1CCN(c2nc(OC[C@@]34CCCN3C[C@H](F)C4)nc3c(F)c(-c4ccc(F)c5sc(N)nc45)c(C(F)(F)F)cc23)C1 (stereo partly drawn) [Example 61, 2-(1-(7-(2-amino-7-fluorobenzo[d]thiazol-4-yl)-8-fluoro-2-(((2R,7aS)-2-fluorotetrahydro-1H-pyrrolizin-7a(5H)-yl)methoxy)-6-(trifluoromethyl)quinazolin-4-yl)pyrrolidin-3-yl)acetonitrile]",14,–
"Cc1nc(N)nc(-c2c(Cl)cc3c(N4CCC(C#N)CC4)nc(OC[C@@]45CCCN4C[C@H](F)C5)nc3c2F)c1C(F)(F)F [Example 107, 1-(7-(2-amino-6-methyl-5-(trifluoromethyl)pyrimidin-4-yl)-6-chloro-8-fluoro-2-(((2R,7aS)-2-fluorotetrahydro-1H-pyrrolizin-7a(5H)-yl)methoxy)quinazolin-4-yl)piperidine-4-carbonitrile]",73,–
"Nc1nc2c(-c3c(C(F)(F)F)cc4c(N[C@H]5C[C@H]5F)nc(OC[C@@]56CCCN5C[C@H](F)C6)nc4c3F)ccc(F)c2s1 [Example 2, 7-fluoro-4-(8-fluoro-4-(((1S,2R)-2-fluorocyclopropyl)amino)-2-(((2R,7aS)-2-fluorotetrahydro-1H-pyrrolizin-7a(5H)-yl)methoxy)-6-(trifluoromethyl)quinazolin-7-yl)benzo[d]thiazol-2-amine]",16,–
"CC1CN(c2nc(OC[C@@]34CCCN3C[C@H](F)C4)nc3c(F)c(-c4ccc(F)c5sc(N)nc45)c(C(F)(F)F)cc23)CCC1C#N (stereo partly drawn) [Example 73, 1-(7-(2-amino-7-fluorobenzo[d]thiazol-4-yl)-8-fluoro-2-(((2R,7aS)-2-fluorotetrahydro-1H-pyrrolizin-7a(5H)-yl)methoxy)-6-(trifluoromethyl)quinazolin-4-yl)-3-methylpiperidine-4-carbonitrile]",6.8,–
"N#C[C@H]1C[C@H](Nc2nc(OC[C@@]34CCCN3C[C@H](F)C4)nc3c(F)c(-c4ccc(F)c5sc(N)nc45)c(C(F)(F)F)cc23)C1 [Example 19, (trans)-3-((7-(2-amino-7-fluorobenzo[d]thiazol-4-yl)-8-fluoro-2-(((2R,7aS)-2-fluorotetrahydro-1H-pyrrolizin-7a(5H)-yl)methoxy)-6-(trifluoromethyl)quinazolin-4-yl)amino)cyclobutane-1-carbonitrile]",9.9,–
"Nc1nc2c(-c3c(C(F)(F)F)cc4c(NC56CC(C5)C6)nc(OC[C@@]56CCCN5C[C@H](F)C6)nc4c3F)ccc(F)c2s1 [Example 24, 4-(4-(bicyclo [1.1.1]pentan-1-ylamino)-8-fluoro-2-(((2R,7aS)-2-fluorotetrahydro-1H-pyrrolizin-7a(5H)-yl)methoxy)-6-(trifluoromethyl)quinazolin-7-yl)-7-fluorobenzo[d]thiazol-2-amine]",24,–
"CC1CC1Nc1nc(OC[C@@]23CCCN2C[C@H](F)C3)nc2c(F)c(-c3ccc(F)c4sc(N)nc34)c(C(F)(F)F)cc12 (stereo partly drawn) [Example 3, 7-fluoro-4-(8-fluoro-2-(((2R,7aS)-2-fluorotetrahydro-1H-pyrrolizin-7a(5H)-yl)methoxy)-4-((2-methylcyclopropyl)amino)-6-(trifluoromethyl)quinazolin-7-yl)benzo[d]thiazol-2-amine]",6.2,–
"N#C[C@@H]1CCCN(c2nc(OC[C@@]34CCCN3C[C@H](F)C4)nc3c(F)c(-c4ccc(F)c5sc(N)nc45)c(C(F)(F)F)cc23)C1 [Example 76, (3R)-1-(7-(2-amino-7-fluorobenzo[d]thiazol-4-yl)-8-fluoro-2-(((2R,7aS)-2-fluorotetrahydro-1H-pyrrolizin-7a(5H)-yl)methoxy)-6-(trifluoromethyl)quinazolin-4-yl)piperidine-3-carbonitrile]",21,–
"Nc1nc2c(-c3c(C(F)(F)F)cc4c(NC5CCCCC5)nc(OC[C@@]56CCCN5C[C@H](F)C6)nc4c3F)ccc(F)c2s1 [Example 27, 4-(4-(cyclohexylamino)-8-fluoro-2-(((2R,7aS)-2-fluorotetrahydro-1H-pyrrolizin-7a(5H)-yl)methoxy)-6-(trifluoromethyl)quinazolin-7-yl)-7-fluorobenzo[d]thiazol-2-amine]",503,–
"Nc1nc2c(-c3c(C(F)(F)F)cc4c(N[C@H]5C[C@H](F)C5)nc(OC[C@@]56CCCN5C[C@H](F)C6)nc4c3F)ccc(F)c2s1 [Example 16, 7-fluoro-4-(8-fluoro-4-(((trans)-3-fluorocyclobutyl)amino)-2-(((2R,7aS)-2-fluorotetrahydro-1H-pyrrolizin-7a(5H)-yl)methoxy)-6-(trifluoromethyl)quinazolin-7-yl)benzo[d]thiazol-2-amine]",14,–
